# Values of other authors in patent US6974895B1, “Transgenic legume plants modified to produce resveratrol glucoside and uses thereof” (The Samuel Roberts Noble Foundation, Inc., priority 1999, dated 2005).
# Tested on: aberrant colon crypt formation
# Settings: azoxymethane treated rat model (Steele, et al. 1998)
smiles,measurement,value
"Oc1ccc(C=Cc2cc(O)cc(O)c2)cc1 [resveratrol, 3,5,4′-trihydroxystilbene]",inhibition of aberrant colon crypt formation,significant inhibition
